Measurements from US7906491B2 (Univisitair Medisch Centrum Utrecht, priority 2002, dated 2011).

Key:
Rap1 [1] = test: Rap1 activation assay in Ovcar3 cells; format: cell-based
Method: A: 8-pCPT-2′-O-Me-cAMP stimulates cell adhesion. Upper panel: quantification of Ovcar3 cells adhering to fibronectin after treatment with increasing concentrations of 8-pCPT-2′-O-Me-cAMP. Lower panel: Ovcar3 cells were treated with increasing concentrations of 8-pCPT-2′-O-Me-cAMP for 15 min, cells were lysed and analyzed for activation of Rap1 (upper blot) and CREB (lower blot). Total Rap1 levels are shown (middle blot). B: 8-pCPT-2′-O-Me-cAMP increases the rate of cell adhesion. Upper panel: quantification of Ovcar3 cells adhering to fibronectin at various time points. Lower panel: cells were treated with 60 μM 8-pCPT-2′-O-Me-cAMP for the indicated times. Cell lysates were analyzed for activation of Rap1 (upper blot) and CREB (lower blot). Total levels of Rap1 in cell lysates are shown (middle blot). C: Ovcar3 cells were either pre-incubated at 37° C. for 30 min with the PKA inhibitor H-89 (10 μM) 30 min prior to seeding onto the wells (‘Short’) or H-89 was added 30 min prior to trypsinization and during the recovery period (‘Long’) and seeded onto wells in the absence or presence of 8-pCPT-2′-O-Me-cAMP (100 μM). Cells were allowed to adhere for 1 h. D, cAMP-induced adhesion to fibronectin is blocked by inhibitors of Rap1. Left panel: Ovcar3 cells were transiently transfected with either mock DNA, increasing concentrations of HA-Rap1GAP II (0.5, 1, 2 or 6 μg, respectively), HA-Rap1GAPI (6 μg) or HA-RBD of RalGDS (6 μg), respectively. Cells were treated with 8-Br-cAMP or 8-pCPT-2′-O-Me-cAMP and adhesion to fibronectin was determined. Right upper panel: luciferase counts of total input cells per well in the above experiment are shown. Right lower panel: expression of HA-Rap1GAPs in the above experiment is shown.
Rap activation assays were performed as described previously (16-18). […] Proteins were eluted with Laemmli sample buffer and analyzed by sodium dodecyl sulphate (SDS)-polyacrylamide gel electrophoresis and Western blotting using Rap1 antibodies. As a control, Rap1 levels in whole cell lysates were determined.

[2] = tested on: type II holoenzyme of PKA (PKAII); test: In vitro activation of cAMP-dependent protein kinase, type II holoenzyme (kemptide substrate); format: biochemical; conditions: compared to cAMP, FIG. 5
Method: (§1) Cyclic AMP dependent protein kinase I and II were reconstituted from isolated subunits and assayed for kinase activity using […] kemptide as substrate, as described previously (15).

human pancreatic β-cells = conditions: cited from earlier work
Epac1-ΔDEP1 = molecular target: T1, Epac1-ΔDEP1 (Homo sapiens, UniProt O95398); test: In vitro GEF assay: Epac activity in the exchange reaction towards Rap (mantGDP-loaded Rap1b); format: biochemical; on Relative activity of Epac*: key: +++: activity comparible to I-007; ++: activity between I-007 and cAMP; +: activity comparible to cAMP; ±: activity less than cAMP
T1 sequence (O95398 191-923 limits assumed): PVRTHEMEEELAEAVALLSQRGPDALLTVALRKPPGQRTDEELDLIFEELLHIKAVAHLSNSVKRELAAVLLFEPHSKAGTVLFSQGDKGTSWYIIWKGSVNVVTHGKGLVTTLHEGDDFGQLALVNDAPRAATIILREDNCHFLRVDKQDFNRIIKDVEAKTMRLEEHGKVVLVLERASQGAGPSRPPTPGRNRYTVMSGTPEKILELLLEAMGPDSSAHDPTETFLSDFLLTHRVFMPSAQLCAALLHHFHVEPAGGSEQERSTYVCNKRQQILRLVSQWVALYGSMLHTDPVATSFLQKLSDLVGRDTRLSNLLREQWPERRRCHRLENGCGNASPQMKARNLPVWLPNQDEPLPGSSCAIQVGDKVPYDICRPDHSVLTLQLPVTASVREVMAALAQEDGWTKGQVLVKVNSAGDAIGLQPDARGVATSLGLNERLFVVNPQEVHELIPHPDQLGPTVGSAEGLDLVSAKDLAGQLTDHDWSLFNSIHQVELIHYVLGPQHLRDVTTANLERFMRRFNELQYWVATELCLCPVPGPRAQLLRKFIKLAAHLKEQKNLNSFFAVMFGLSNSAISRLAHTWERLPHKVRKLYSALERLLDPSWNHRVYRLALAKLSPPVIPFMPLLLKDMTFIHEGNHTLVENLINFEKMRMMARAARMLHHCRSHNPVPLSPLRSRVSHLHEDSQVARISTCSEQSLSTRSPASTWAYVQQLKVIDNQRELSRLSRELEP
Method: In vitro GEF assays were performed as described (3,16). […] Buffer conditions were 50 mM Tris pH7.4, 150 mM NaCl, 5% glycerol, 5 mM DTE, 60 μM GTP. Reactions were carried out in 96-well plates and measured in a Cary Eclipse from Varian Inc., using the manufacturers software.

[3] = tested on: type I holoenzyme of PKA (PKAI); test: In vitro activation of cAMP-dependent protein kinase, type I holoenzyme (kemptide substrate); format: biochemical; conditions: compared to cAMP, FIG. 5
Method: as §1

Rap1 [4] = test: Rap1 activation assay (read-out for Epac) in NIH3T3-A14-Epac1 cells; format: cell-based; conditions: 15 min
Method: Upper panel: NIH3T3-A14-Epac1 cells were treated for 15 min with 8-Br-cAMP, and cell lysates were analyzed for activation of Rap1 and phosphorylation of CREB. Lower panel: NIH3T3-A14-Epac1 cells were treated in duplicate for 15 min with increasing concentrations of 8-pCPT-2′-O-Me-cAMP. Cells were lysed and equal amounts of cell lysate were incubated with precoupled GST-RalGDSRBD and Rap1 was assayed by immunoblotting with Rap1 antibody.
Therefore, 8-CPT-2′-O-Me-cAMP was tested in NIH3T3-A14-Epac1 cells for the activation of Epac, using Rap1 as a read-out, and of PKA, using phosphorylation of the common PKA substrate CREB 29 as a read-out.
NIH3T3-A14 cells, stably expressing Epac1, were grown in DMEM with 10% fetal calf serum and 2 μg/ml puromycin. NIH-OVCAR3 (Ovcar3) cells were maintained in RPMI with 10% fetal calf serum. Transient transfection of Ovcar3 cells was performed using the FuGENE 6 transfection reagent (Roche Diagnostics, Mannheim, Germany) according to the manufacturer's procedures, using 6 μg total DNA including a CMV-luciferase plasmid (0.2 μg).
Rap activation assays were performed as described previously (16-18). Briefly, cells were lysed in lysis buffer containing 10% glycerol, 1% Nonidet P-40, 50 mM Tris-Cl pH7.5, 200 mM NaCl, 2mM MgCl2, 1 μM leupeptin, 0.1 μM aprotinin, 5 mM NaF, 1 mM NaVO3. Lysates were clarified by centrifugation and incubated with GST-tagged RalGDS-RBD pre-coupled to glutathione beads to specifically pull down the GTP-bound forms of Rap1. Samples were incubated for 1 hr at 4° C. while tumbling. Beads were washed four times in lysis buffer, and the remaining fluid was removed with an insulin syringe. Proteins were eluted with Laemmli sample buffer and analyzed by sodium dodecyl sulphate (SDS)-polyacrylamide gel electrophoresis and Western blotting using Rap1 antibodies. As a control, Rap1 levels in whole cell lysates were determined.

EC50 (Rap1 [1]; Homo sapiens, OVCAR-3, 0.25 h, 15 min, FIG. 7A): ~30 µM
ability to activate the type II holoenzyme of PKA [2]: greatly impaired
maximal activity of Epac1 compared to cAMP (Epac1-ΔDEP1; in vitro): three-fold higher
Relative activity of Epac* (Epac1-ΔDEP1; in vitro in the exchange reaction towards Rap): +++
EC50 (Epac1-ΔDEP1; in vitro, FIG. 4, read-out: Half-maximal activation of Epac1): 2.2 µM
ability to activate the type I holoenzyme of PKA [3]: greatly impaired
Compound: CO[C@@H]1[C@@H]2OP(=O)(O)OC[C@H]2O[C@H]1n1c(Sc2ccc(Cl)cc2)nc2c(N)ncnc21 [Compound I-007, 8-(4-chloro-phenylthio)-2′-O-methyladenosine-3′,5′-cyclic monophosphate]
Rap1 activation in time-course (Rap1 [1]; 60 μM, FIG. 7B): rapid and sustained Rap1 activation
exocytosis (human pancreatic β-cells): induces exocytosis
mobilization of Ca2+ from intracellular Ca2+ stores via Epac-mediated CICR (human pancreatic β-cells): can induce mobilization of Ca^2+
activation of Rap1 (Rap1 [4]; 8-Br-cAMP 1 mM): induced the activation of Rap1 only
concentration at which Rap1 is already activated (Rap1 [4]; dose-response): 10 µM
